Measurements reported in US4906565A, “Method for the selective detection of microbial nucleotides” (Minnesota Mining and Manufacturing Company, priority 1986, dated 1990).
Several values for one entry are separate records, joined by “and”; a condition that tells them apart may be missing. Equal entries are not always repeated.

Assays:
Format in all cases: biochemical
glycerokinase = experiment: Inhibition of glycerokinase (protection of ATP), bioluminescent ATP assay in buffer; details: for RLU 5 min. / RLU 10 min. / RLU 15 min. / RLU 0 min.: glycerokinase; for RLU 5 min.: 5 min. after glycerol; for RLU 10 min.: 10 min. after glycerol; for RLU 15 min.: 15 min. after glycerol; for RLU 0 min.: before glycerol added
Experimental: Assay: Glycerol was added last to the samples to initiate the enzyme's activity. Before glycerol was added a 50 μl aliquot was taken from all samples. ATP levels in those aliquots (expressed in RLU) were determined as time zero values. Next glycerol was added to the mixtures and further 50 μl aliquots were taken at 5, 10, and 15 minutes. ATP in all aliquots was measured by bioluminescent means as described. Results:
Assay: Glycerol was added last to the samples to initiate the enzyme's activity. Before glycerol was added a 50 μl aliquot was taken from all samples as time zero. Next glycerol was added to the samples and after 5, 10 and 15 minutes, 50 μl aliquots were again taken. ATP in all aliquots was measured as described.
Assay: Glycerol was added last to the samples to initiate the enzyme's activity. Before glycerol was added a 50 μl aliquot was taken from all samples as time zero. At 5, 10 and 15 minutes after addition of glycerol further 50 μl aliquots were taken from the samples. ATP in all aliquots was measured as described.

firefly luciferase [1] = target: T1, firefly luciferase (Photinus pyralis, UniProt P08659); experiment: Effect of inhibitor on the bioluminescent assay of ATP
T1 construct: purchased Lumac/3M Lumit PM
Experimental: Assay: from each sample triplicate 100 μl aliquots were taken. In those aliquots ATP was measured as described.
Assay: from each sample triplicate 100 μl aliquots were taken. ATP in those aliquots was measured as described.
Assay: From each sample triplicate 100 μl aliquots were taken and ATP was measured as described.
Protocol: Eight samples were prepared using materials described above and previously, as shown in TABLE 7-1 and incubated for various periods of time (i.e., 0, 5, 10 and […]) before aliquots were taken and assayed as described.
Protocol: Increasing concentrations of hexokinase, with and without PCMPSA were prepared according to TABLE 8-1 using materials described above and previously.

firefly luciferase [2] = target: T1, firefly luciferase; experiment: as above; details: for RLU mean / RLU, triplicate aliquots 1, 2, 3: no kinase
[3] = DNFB 0.0827 mM, ATP in Lumit buffer
[4] = DNFB 0.827 mM, ATP in Lumit buffer
[5] = DNFB 8.27 mM, ATP in Lumit buffer

T1 sequence (P08659 whole entry): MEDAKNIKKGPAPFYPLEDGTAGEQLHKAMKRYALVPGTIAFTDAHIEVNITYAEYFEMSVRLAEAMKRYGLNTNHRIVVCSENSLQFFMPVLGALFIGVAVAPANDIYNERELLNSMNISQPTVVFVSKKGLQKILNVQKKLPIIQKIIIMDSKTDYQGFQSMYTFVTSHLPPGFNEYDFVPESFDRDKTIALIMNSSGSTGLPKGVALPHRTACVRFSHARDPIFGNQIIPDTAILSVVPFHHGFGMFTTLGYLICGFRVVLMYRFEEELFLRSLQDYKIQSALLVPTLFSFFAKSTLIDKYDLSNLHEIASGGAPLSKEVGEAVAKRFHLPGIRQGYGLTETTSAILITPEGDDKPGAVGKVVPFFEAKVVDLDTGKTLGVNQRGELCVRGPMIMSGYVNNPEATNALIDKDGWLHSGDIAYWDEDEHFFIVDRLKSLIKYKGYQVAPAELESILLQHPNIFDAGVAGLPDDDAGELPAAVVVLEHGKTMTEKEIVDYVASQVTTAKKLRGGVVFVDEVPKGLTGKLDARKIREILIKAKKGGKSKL

Question: For `O=[N+]([O-])c1ccc(F)c([N+](=O)[O-])c1` [DNFB], which “inhibition of glycerokinase (conclusion in words)” value (“inhibition of glycerokinase” below) (glycerokinase; 0.0827 mM DNFB) is on record?
Answer: not effectively inhibited

Question: And the “inhibition of glycerokinase” value (glycerokinase; 0.27 mM DNFB (so in the source))?
Answer: effectively inhibited

Question: And the “inhibition of glycerokinase” value (glycerokinase; 8.27 mM DNFB (so in the source))?
Answer: moderately inhibited

Question: What about the “RLU 5 min.” value (glycerokinase; DNFB 0.0827 mM) of the same compound?
Answer: 11 RLU

Question: And the “RLU 10 min.” value (glycerokinase; DNFB 0.0827 mM)?
Answer: 11 RLU

Question: What about the “RLU 15 min.” value (glycerokinase; DNFB 0.0827 mM) of the same compound?
Answer: 18 RLU

Question: And the “RLU 0 min.” value (glycerokinase; DNFB 0.0827 mM)?
Answer: 7025 RLU

Question: What about the “RLU 5 min.” value (glycerokinase; DNFB 0.827 mM) of the same compound?
Answer: 1585 RLU

Question: And the “RLU 10 min.” value (glycerokinase; DNFB 0.827 mM)?
Answer: 1498 RLU

Question: And the “RLU 15 min.” value (glycerokinase; DNFB 0.827 mM)?
Answer: 1618 RLU

Question: What about the “RLU 0 min.” value (glycerokinase; DNFB 0.827 mM) of the same compound?
Answer: 7402 RLU

Question: What about the “RLU 5 min.” value (glycerokinase; DNFB 8.27 mM) of the same compound?
Answer: 7785 RLU

Question: What about the “RLU 10 min.” value (glycerokinase; DNFB 8.27 mM) of the same compound?
Answer: 7965 RLU

Question: And the “RLU 15 min.” value (glycerokinase; DNFB 8.27 mM)?
Answer: 7968 RLU

Question: And the “RLU 0 min.” value (glycerokinase; DNFB 8.27 mM)?
Answer: 8002 RLU

Question: What about the “% of control” value (firefly luciferase [1]; DNFB 0.0827 mM, control = ethanol, 0 mM DNFB) of the same compound?
Answer: 106%

Question: And the “interference with the bioluminescent assay of ATP by firefly luciferase (conclusion in words)” value (firefly luciferase [1]; DNFB concentrations of Example 3)?
Answer: does not interfere

Question: And the RLU mean (firefly luciferase [2]; [3])?
Answer: 15429 RLU

Question: What about the “RLU, triplicate aliquots 1, 2, 3” value (firefly luciferase [2]; [3]) of the same compound?
Answer: 15157 RLU and 15625 RLU and 15507 RLU

Question: And the RLU mean (firefly luciferase [2]; [4])?
Answer: 15914 RLU

Question: What about the “RLU, triplicate aliquots 1, 2, 3” value (firefly luciferase [2]; [4]) of the same compound?
Answer: 16060 RLU and 15753 RLU and 15929 RLU

Question: What about the “% of control” value (firefly luciferase [2]; DNFB 0.827 mM, control = ethanol, 0 mM DNFB) of the same compound?
Answer: 110%

Question: What about the RLU mean (firefly luciferase [2]; [5]) of the same compound?
Answer: 14784 RLU

Question: What about the “RLU, triplicate aliquots 1, 2, 3” value (firefly luciferase [2]; [5]) of the same compound?
Answer: 14498 RLU and 14780 RLU and 15076 RLU

Question: And the “% of control” value (firefly luciferase [2]; DNFB 8.27 mM, control = ethanol, 0 mM DNFB)?
Answer: 102.2%

Question: What does the source list for `CCN1C(=O)C=CC1=O` [NEM, N-ethylmaleimide]?
Answer: RLU 5 min. (glycerokinase; NEM 4.10 mM): 7275 RLU; RLU 10 min. (glycerokinase; NEM 4.10 mM): 6398 RLU; RLU 15 min. (glycerokinase; NEM 4.10 mM): 5922 RLU; RLU 0 min. (glycerokinase; NEM 4.10 mM): 7635 RLU; RLU 5 min. (glycerokinase; NEM 8.14 mM): 7130 RLU; RLU 10 min. (glycerokinase; NEM 8.14 mM): 6623 RLU; RLU 15 min. (glycerokinase; NEM 8.14 mM): 6365 RLU; RLU 0 min. (glycerokinase; NEM 8.14 mM): 7742 RLU; RLU 5 min. (glycerokinase; NEM 12.1 mM): 7413 RLU; RLU 10 min. (glycerokinase; NEM 12.1 mM): 6812 RLU; RLU 15 min. (glycerokinase; NEM 12.1 mM): 6997 RLU; RLU 0 min. (glycerokinase; NEM 12.1 mM): 7660 RLU; RLU 5 min. (glycerokinase; NEM 19.8 mM): 7138 RLU; RLU 10 min. (glycerokinase; NEM 19.8 mM): 6547 RLU; RLU 15 min. (glycerokinase; NEM 19.8 mM): 6820 RLU; RLU 0 min. (glycerokinase; NEM 19.8 mM): 7406 RLU; RLU 5 min. (glycerokinase; NEM 16. mM): 7192 RLU; RLU 10 min. (glycerokinase; NEM 16. mM): 7002 RLU; RLU 15 min. (glycerokinase; NEM 16. mM): 6962 RLU; RLU 0 min. (glycerokinase; NEM 16. mM): 7199 RLU; inhibition of glycerokinase (conclusion in words) (glycerokinase; each NEM concentration tested (4.10-19.8 mM)): seems to be inhibited; % of control (firefly luciferase [1]; NEM 19.8 mM, control = 0 mM NEM): 86.3%; RLU mean (firefly luciferase [2]; NEM 4.10 mM, ATP in buffer): 14410 RLU; RLU, triplicate aliquots 1, 2, 3 (firefly luciferase [2]; NEM 4.10 mM, ATP in buffer): 14387 RLU and 14794 RLU and 14051 RLU; % of control (firefly luciferase [2]; NEM 4.10 mM, control = 0 mM NEM): 97.6%; RLU mean (firefly luciferase [2]; NEM 8.14 mM, ATP in buffer): 14608 RLU; RLU, triplicate aliquots 1, 2, 3 (firefly luciferase [2]; NEM 8.14 mM, ATP in buffer): 14401 RLU and 14667 RLU and 14756 RLU; % of control (firefly luciferase [2]; NEM 8.14 mM, control = 0 mM NEM): 99.0%; RLU mean (firefly luciferase [2]; NEM 12.1 mM, ATP in buffer): 13737 RLU; RLU, triplicate aliquots 1, 2, 3 (firefly luciferase [2]; NEM 12.1 mM, ATP in buffer): 14139 RLU and 13794 RLU and 13279 RLU; % of control (firefly luciferase [2]; NEM 12.1 mM, control = 0 mM NEM): 93.1%; RLU mean (firefly luciferase [2]; NEM 16.0 mM, ATP in buffer): 13212 RLU; RLU, triplicate aliquots 1, 2, 3 (firefly luciferase [2]; NEM 16.0 mM, ATP in buffer): 12750 RLU and 13438 RLU and 13448 RLU; % of control (firefly luciferase [2]; NEM 16.0 mM, control = 0 mM NEM): 89.5%; RLU mean (firefly luciferase [2]; NEM 19.8 mM, ATP in buffer): 12747 RLU; RLU, triplicate aliquots 1, 2, 3 (firefly luciferase [2]; NEM 19.8 mM, ATP in buffer): 13534 RLU and 12596 RLU and 12111 RLU; RLU mean (firefly luciferase [2]; NEM .414 mM, ATP in buffer): 14962 RLU; RLU, triplicate aliquots 1, 2, 3 (firefly luciferase [2]; NEM .414 mM, ATP in buffer): 15071 RLU and 15081 RLU and 14735 RLU; % of control (firefly luciferase [2]; NEM .414 mM, control = 0 mM NEM): 101.4%; interference with the bioluminescent assay of ATP (conclusion in words) (firefly luciferase [2]; NEM concentrations of Example 5): interferes only moderately, if at all
